Results from patent US8217035B2, “Pyrimidine derivatives used as PI-3-kinase inhibitors” (Novartis AG, priority 2006, dated 2012).
Like-named read-outs stand apart in the source and are kept apart here.

Experiments:
[1] = target: PI3 kinase alpha (Homo sapiens, UniProt P42336); test: PI3K ATP depletion assay (Biological Method 1, Assay 3; KinaseGlo luminescence); assay type: biochemical; conditions: ATP depletion assay, read-out: PI3 Kinase Alpha, IC50
Summary of the method: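 Compound in DMSO was mixed with 10 nM PI3 kinase and 5 μg/mL phosphatidylinositol, and the reaction was started with 2 μM ATP. It ran to about 50% ATP depletion and was stopped with KinaseGlo.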

[2] = tested on: A2780 ovarian cancer cells; test: Cellular proliferation in A2780 cells, Cell Titer Glo (Biological Method 4); assay type: cell-based; conditions: Homo sapiens
Procedure: In addition, many of the compounds of Table 1 were tested to determine their inhibitory activity in a cellular proliferation assay according to Biological Method 4.
The ability of the compounds of the invention to inhibit cellular proliferation were determined by using Cell Titer Glo, a commercially available assay from Promega Corporation. A2780 ovarian cancer cells were seeded in TC treated 96-well plates at a density of 1,000 per well in DMEM, 10% FBS, 1% Sodium Pyruvate, and 1% Penicillin Streptomycin for a minimum of 2 hrs prior to addition of compound. For each concentration of test compound, 2 μl (500×) aliquots of compound or 100% DMSO diluted in 500 μl of culture medium for 2× concentration then diluted 1× on the Cells. Cells were incubated for 72 hrs at 37° C., 5% CO2. After the 72 hour incubation, Cell Titer Glo reagent is added to determine number of viable cells remaining after exposure to the compound, and the EC50 value was calculated. The assay was performed according to the manufacturer's instruction (Promega Corporation, Madison, Wis. USA). Each experimental condition was performed in duplicate.

[3] = ovarian cancer cell line A2780, Biological Method 4

PI3 kinase alpha, sequence (P42336 whole entry): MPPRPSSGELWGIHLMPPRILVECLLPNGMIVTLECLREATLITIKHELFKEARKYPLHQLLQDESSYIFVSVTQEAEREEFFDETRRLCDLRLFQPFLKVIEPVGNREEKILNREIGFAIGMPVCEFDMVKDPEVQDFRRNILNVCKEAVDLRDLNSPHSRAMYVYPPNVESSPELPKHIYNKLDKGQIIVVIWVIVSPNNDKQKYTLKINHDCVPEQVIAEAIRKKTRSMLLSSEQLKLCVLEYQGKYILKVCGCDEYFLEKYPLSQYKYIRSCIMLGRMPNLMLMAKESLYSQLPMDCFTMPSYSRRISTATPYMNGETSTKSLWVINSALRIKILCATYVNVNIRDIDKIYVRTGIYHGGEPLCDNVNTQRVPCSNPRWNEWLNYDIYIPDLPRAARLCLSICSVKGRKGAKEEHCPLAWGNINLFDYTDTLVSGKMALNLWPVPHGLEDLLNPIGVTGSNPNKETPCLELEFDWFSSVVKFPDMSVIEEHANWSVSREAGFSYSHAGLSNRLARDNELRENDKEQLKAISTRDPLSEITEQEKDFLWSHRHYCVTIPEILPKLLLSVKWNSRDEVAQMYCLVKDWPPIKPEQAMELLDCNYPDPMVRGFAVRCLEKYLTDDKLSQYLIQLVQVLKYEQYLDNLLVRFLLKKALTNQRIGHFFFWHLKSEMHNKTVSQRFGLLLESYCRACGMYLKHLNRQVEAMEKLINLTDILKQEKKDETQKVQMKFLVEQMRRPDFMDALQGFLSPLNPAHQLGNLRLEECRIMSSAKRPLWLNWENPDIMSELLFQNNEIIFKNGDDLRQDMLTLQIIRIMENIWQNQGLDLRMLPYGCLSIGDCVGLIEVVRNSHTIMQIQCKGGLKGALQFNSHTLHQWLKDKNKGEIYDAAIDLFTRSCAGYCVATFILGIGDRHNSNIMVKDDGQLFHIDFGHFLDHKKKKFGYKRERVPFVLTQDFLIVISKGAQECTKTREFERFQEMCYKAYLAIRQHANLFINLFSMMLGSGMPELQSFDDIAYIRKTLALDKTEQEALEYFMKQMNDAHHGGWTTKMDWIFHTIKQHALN
PI3 kinase alpha, sequence (P27986 whole entry partner): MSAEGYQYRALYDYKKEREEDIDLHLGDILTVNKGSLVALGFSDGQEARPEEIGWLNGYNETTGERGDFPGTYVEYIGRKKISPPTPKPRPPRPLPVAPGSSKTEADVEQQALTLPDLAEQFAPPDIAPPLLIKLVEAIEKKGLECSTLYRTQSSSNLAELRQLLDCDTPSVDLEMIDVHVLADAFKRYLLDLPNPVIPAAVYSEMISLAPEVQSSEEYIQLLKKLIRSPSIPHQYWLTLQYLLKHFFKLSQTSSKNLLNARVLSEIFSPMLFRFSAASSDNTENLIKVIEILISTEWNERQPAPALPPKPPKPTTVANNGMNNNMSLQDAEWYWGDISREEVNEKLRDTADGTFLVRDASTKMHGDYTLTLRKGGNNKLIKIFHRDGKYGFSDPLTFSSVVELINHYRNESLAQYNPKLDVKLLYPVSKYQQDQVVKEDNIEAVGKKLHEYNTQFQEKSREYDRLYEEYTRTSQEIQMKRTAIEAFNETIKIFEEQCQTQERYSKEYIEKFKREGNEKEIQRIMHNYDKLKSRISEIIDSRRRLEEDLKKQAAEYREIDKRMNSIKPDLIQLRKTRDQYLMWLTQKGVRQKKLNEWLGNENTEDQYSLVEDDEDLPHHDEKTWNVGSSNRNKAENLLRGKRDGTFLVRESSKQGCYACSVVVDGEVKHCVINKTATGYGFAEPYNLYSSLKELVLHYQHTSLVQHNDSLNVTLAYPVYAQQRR

Compound	IC50 [1] [nM]	EC50 ([2]; ovarian cancer cell line A2780) [nM]	IC50 ([1]; Biological Method 1) [nM]	EC50 [2, 3] [nM]
CC(=O)N1CCC[C@H](Oc2cc(-c3cnc(N)nc3N)nc(N3CCOCC3)n2)C1 [Compound 529]	< 1000	< 10000	–	–
CN1CCN(S(=O)(=O)c2cccc(Nc3cc(-c4cnc(N)cc4C(F)(F)F)nc(N4CCOCC4)n3)c2)CC1 [Compound 315]	–	–	< 1000	< 10000
COc1cccc(Nc2cc(-c3cnc(N)nc3)nc(N3CCOCC3)n2)c1 [Compound 308]	–	–	< 1000	< 10000
Nc1ccc(-c2cc(Nc3cc(F)ccn3)nc(N3CCOCC3)n2)cn1 [Compound 351]	–	–	< 1000	< 25000
Nc1cc(C(F)(F)F)c(-c2cc(N3CCOC(CN4CCCC4)C3)nc(N3CCOCC3)n2)cn1 (stereo not drawn) [Compound 220]	–	–	< 10000	< 25000
COc1cncc(-c2cc(-c3ccc(N)nc3)nc(N3CCOCC3)n2)c1 [Compound 275]	–	–	< 1000	< 1000
Nc1ncc(-c2cc(CNC(=O)OC3CCOC3)nc(N3CCOCC3)n2)c(N)n1 (stereo not drawn) [Compound 541]	< 1000	< 25000	–	–
CS(=O)(=O)N1CC[C@@H](Oc2cc(-c3cnc(N)cc3C(F)(F)F)nc(N3CCOCC3)n2)C1 [Compound 540]	< 1000	< 10000	–	–
COc1cc2cc(Nc3cc(-c4ccc(N)nc4)nc(N4CCOCC4)n3)cnc2cc1OC [Compound 311]	–	–	< 1000	< 1000
N#Cc1cc(-c2cnc(N)nc2C(F)(F)F)nc(N2CCOCC2)n1 [Compound 465]	< 1000	< 10000	–	–
COc1ccc(Nc2cc(-c3cnc(N)nc3C)nc(N3CCOCC3)n2)cn1 [Compound 476]	< 1000	< 10000	–	–
CN(c1cc(-c2cnc(N)nc2)nc(N2CCOCC2)n1)C1CCCCC1 [Compound 404]	< 1000	< 10000	–	–
CC(=O)N1CCC[C@H](Oc2cc(-c3cnc(N)cc3C(F)(F)F)nc(N3CCOCC3)n2)C1 [Compound 455]	< 1000	< 10000	–	–
CN1CCC(C(=O)Nc2cc(-c3cnc(N)nc3)nc(N3CCOCC3)n2)CC1 [Compound 289]	–	–	< 1000	< 10000
Nc1cc(C(F)(F)F)c(-c2cc(N3CCC(O)CC3)nc(N3CCOCC3)n2)cn1 [Compound 323]	–	–	< 1000	< 25000
Nc1ncc(-c2cc(C(=O)Nc3ccncc3)nc(N3CCOCC3)n2)cn1 [Compound 230]	–	–	< 1000	< 10000
Nc1ccc(-c2cc(Oc3cccnc3)nc(N3CCOCC3)n2)cn1 [Compound 512]	< 1000	< 10000	–	–
Nc1ccc(-c2cc(Nc3ccc4ccccc4n3)nc(N3CCOCC3)n2)cn1 [Compound 438]	< 1000	< 10000	–	–
Nc1cc(Cl)c(-c2cc(OC3CCOCC3)nc(N3CCOCC3)n2)cn1 [Compound 328]	–	–	< 1000	< 25000
CN(C)c1ccc(-c2cc(-c3ccc(N)nc3)nc(N3CCOCC3)n2)cn1 [Compound 505]	< 1000	< 10000	–	–
Nc1ccc(-c2cc(Nc3ccc(-c4cnco4)cc3)nc(N3CCOCC3)n2)cn1 [Compound 357]	–	–	< 1000	< 25000

Compound	IC50 [1] [nM]	EC50 ([2]; ovarian cancer cell line A2780) [nM]	IC50 ([1]; Biological Method 1) [nM]	EC50 [2, 3] [nM]
Nc1ncc(-c2cc(-c3cccc4ncccc34)nc(N3CCOCC3)n2)cn1 [Compound 280]	–	–	< 1000	< 10000
Nc1ncc(-c2cc(NC3CCCCC3)nc(N3CCOCC3)n2)cn1 [Compound 405]	< 1000	< 10000	–	–
CS(=O)(=O)Nc1ncccc1-c1cc(-c2cnc(N)nc2N)nc(N2CCOCC2)n1 [Compound 260]	–	–	< 1000	< 10000
Nc1ncc(-c2cc(-c3cncc(O)c3)nc(N3CCOCC3)n2)cn1 [Compound 274]	–	–	< 1000	< 1000
Nc1ccc(-c2cc(Nc3cc(Cl)ccn3)nc(N3CCOCC3)n2)cn1 [Compound 349]	–	–	< 1000	< 25000
CN(c1cc(-c2cnc(N)nc2)nc(N2CCOCC2)n1)C1CCOCC1 [Compound 6]	< 1000	< 10000	–	–
Nc1cc(C(F)(F)F)c(-c2nc(N3CCOCC3)nc(N3CCOCC3)c2F)cn1 [Compound 313]	–	–	< 1000	< 25000
Nc1ccc(-c2cc(Nc3cc(C(F)(F)F)ccn3)nc(N3CCOCC3)n2)cn1 [Compound 350]	–	–	< 1000	< 25000
CC(=O)c1ccc(Nc2cc(-c3ccc(N)nc3)nc(N3CCOCC3)n2)cc1 [Compound 359]	–	–	< 1000	< 1000
CC(=O)N1CC[C@H](Oc2cc(-c3cnc(N)cc3C(F)(F)F)nc(N3CCOCC3)n2)C1 [Compound 22]	< 1000	< 10000	–	–
Nc1cc(C(F)(F)F)c(-c2cc(-c3cncc(CN4CCCC4)c3)nc(N3CCOCC3)n2)cn1 [Compound 264]	–	–	< 1000	< 10000
Nc1ncc(-c2cc(N3CCNC(=O)C3)nc(N3CCOCC3)n2)cn1 [Compound 392]	–	–	< 1000	< 10000
N#Cc1cc(N)ncc1-c1cc(N2CCOC(c3ccccc3)C2)nc(N2CCOCC2)n1 (stereo not drawn) [Compound 341]	–	–	< 1000	< 10000
Nc1ccc(-c2cc(Nc3ccc(S(=O)(=O)C(F)(F)F)cc3)nc(N3CCOCC3)n2)cn1 [Compound 358]	–	–	< 1000	< 10000
Nc1cc(C(F)(F)F)c(-c2cc(-c3ccccc3S(N)(=O)=O)nc(N3CCOCC3)n2)cn1 [Compound 543]	< 1000	< 10000	–	–
Nc1cc(C(F)(F)F)c(-c2cc(N3CCS(=O)(=O)CC3)nc(N3CCOCC3)n2)cn1 [Compound 331]	–	–	< 1000	< 25000
Cc1c(-c2cnc(N)nc2)nc(N2CCOCC2)nc1-c1cnc(N)nc1 [Compound 484]	< 1000	< 10000	–	–
Nc1ccc(-c2cc(Nc3cnc4ccc(O)cc4c3)nc(N3CCOCC3)n2)cn1 [Compound 367]	–	–	< 1000	< 10000
Nc1ncc(-c2cc(Cl)nc(N3CCOCC3)n2)cn1 [Compound 523]	< 1000	< 10000	–	–
Nc1ccc(-c2cc(Nc3ccnc4c(C(F)(F)F)cccc34)nc(N3CCOCC3)n2)cn1 [Compound 383]	–	–	< 1000	< 10000
Nc1ncc(-c2cc(N3CCCC3Cc3ccccc3)nc(N3CCOCC3)n2)cn1 (stereo not drawn) [Compound 407]	< 1000	< 10000	–	–

Compound	IC50 [1] [nM]	EC50 ([2]; ovarian cancer cell line A2780) [nM]	IC50 ([1]; Biological Method 1) [nM]	EC50 [2, 3] [nM]
N#Cc1cc(-c2cnc(N)nc2)nc(N2CCOCC2)n1 [Compound 237]	–	–	< 1000	< 10000
Nc1ncc(-c2ccnc(N3CCOCC3)n2)c(=O)[nH]1 [Compound 462]	< 1000	< 10000	–	–
Nc1ncc(-c2ccnc(N3CCOCC3)n2)c(N)n1 [Compound 463]	< 1000	< 25000	–	–
Nc1cc(C(F)(F)F)c(-c2cc(N3CC[C@H](F)C3)nc(N3CCOCC3)n2)cn1 [Compound 332]	–	–	< 1000	< 1000
N#Cc1cc(N)ncc1-c1cc(-c2cccnc2F)nc(N2CCOCC2)n1 [Compound 417]	< 1000	< 25000	–	–
CS(=O)(=O)c1cccc(Nc2cc(-c3cnc(N)cc3C(F)(F)F)nc(N3CCOCC3)n2)c1 [Compound 238]	–	–	< 1000	< 10000
CC(=O)Nc1ccccc1-c1cc(-c2ccc(N)nc2)nc(N2CCOCC2)n1 [Compound 253]	–	–	< 1000	< 10000
Nc1ccc(-c2cc(-c3cccnc3F)nc(N3CCOCC3)n2)cn1 [Compound 508]	< 1000	< 10000	–	–
CS(=O)(=O)Nc1cccc(-c2cc(-c3ccc(N)nc3)nc(N3CCOCC3)n2)c1 [Compound 249]	–	–	< 1000	< 10000
Nc1ncc(-c2cc(NC(=O)[C@@H]3CCCO3)nc(N3CCOCC3)n2)cn1 [Compound 290]	–	–	< 1000	< 10000
CN1CCC(Oc2ccc(-c3cc(-c4cnc(N)nc4)nc(N4CCOCC4)n3)cn2)CC1 [Compound 277]	–	–	< 1000	< 10000
Nc1ncc(-c2cc(Nc3ccccc3C(F)(F)F)nc(N3CCOCC3)n2)cn1 [Compound 393]	–	–	< 1000	< 10000
Nc1ccc(-c2cc(N3CCOc4ccccc43)nc(N3CCOCC3)n2)cn1 [Compound 387]	–	–	< 1000	< 10000
CN1CCC(Nc2ccc(Nc3cc(-c4ccc(N)nc4)nc(N4CCOCC4)n3)cn2)CC1 [Compound 501]	< 1000	< 10000	–	–
N#Cc1ccnc(Nc2cc(-c3cnc(N)cc3C(F)(F)F)nc(N3CCOCC3)n2)c1 [Compound 239]	–	–	< 1000	< 10000
Nc1ccc(-c2cc(-c3cn[nH]c3)nc(N3CCOCC3)n2)cn1 [Compound 248]	–	–	< 1000	< 10000
Nc1ccc(-c2cc(Cl)nc(N3CCOCC3)n2)cn1 [Compound 369]	–	–	< 1000	< 25000
CC(=O)c1cccc(-c2cc(-c3ccc(N)nc3)nc(N3CCOCC3)n2)c1 [Compound 252]	–	–	< 1000	< 10000
Nc1ccc(-c2cc(Nc3cc(F)ccc3F)nc(N3CCOCC3)n2)cn1 [Compound 436]	< 1000	< 10000	–	–
CN(C)CCOc1ccc(Nc2cc(-c3cnc(N)cc3C(F)(F)F)nc(N3CCOCC3)n2)cn1 [Compound 269]	–	–	< 1000	< 10000
Nc1ncc(-c2cc(O[C@H]3CCOC3)nc(N3CCOCC3)n2)c(C(F)(F)F)n1 [Compound 530]	< 1000	< 10000	–	–
